From patent US11345762B2, “Method for preparing liquid medium composition, and preparation device and kit therefor” (NISSAN CHEMICAL INDUSTRIES, LTD., priority 2015, dated 2022)

B1: human HB-EGF: growth factor, manufactured by PEPROTECH (protein, UniProt Q99075 63-148, looked up)
Heparin-binding EGF-like …: DLQEADLDLLRVTLSSKPQALATPNKEEHGKRKKKGKGLGKKRDPCLRKYKDFCIHGECKYVKELRAPSCICHPGYHGERCHGLSL
B2: human PDGF-BB: growth factor, manufactured by PEPROTECH (protein, UniProt P01127 82-190, looked up)
Platelet-derived growth …: SLGSLTIAEPAMIAECKTRTEVFEISRRLIDRTNANFLVWPPCVEVQRCSGCCNNRNVQCRPTQVQLRPVQVRKIEIVRKKPIFKKATVTLEDHLACKCETVAAARPVT
modifications: homodimer
notes: growth factor, manufactured by PEPROTECH

System: Human pancreatic cancer cell line Panc02,03
Assay: Proliferation action on Panc02,03 cell stimulated by each growth factor (ATP, CellTiter-Glo)
Type: cell-based
Details: for efficacy in Panc02,03 cell proliferation test using the medium composition by the production method of the present invention (in words): compared to a monolayer culture method and negative control group
[1] = Panc02,03, 30 ng/mL, medium composition of Example 13, on day 6 (head)
[2] = Panc02,03, 30 ng/mL, monolayer culture group, culture conditions on day 6 (head)
[3] = Panc02,03, 30 ng/mL, negative control group (medium free of deacylated gellan gum, low adhesion plate), on day 6 (head)
[4] = Panc02,03, 10 ng/mL, medium composition of Example 13, on day 6 (head)
[5] = Panc02,03, 10 ng/mL, monolayer culture group, culture conditions on day 6 (head)
[6] = Panc02,03, 10 ng/mL, negative control group (medium free of deacylated gellan gum, low adhesion plate), on day 6 (head)
[7] = Panc02,03, 100 ng/mL, medium composition of Example 13, on day 6 (head)
[8] = Panc02,03, 100 ng/mL, monolayer culture group, culture conditions on day 6 (head)
[9] = Panc02,03, 100 ng/mL, negative control group (medium free of deacylated gellan gum, low adhesion plate), on day 6 (head)

Molecule	% control of RLU value (ATP measurement, luminescence intensity) (Panc02,03, 3 ng/mL, medium composition of Example 13, on day 6 (head)) [% Control]	% control of RLU value (ATP measurement, luminescence intensity) (Panc02,03, 3 ng/mL, monolayer culture group, culture conditions on day 6 (head)) [% Control]	% control of RLU value (ATP measurement, luminescence intensity) (Panc02,03, 3 ng/mL, negative control group (medium free of deacylated gellan gum, low adhesion plate), on day 6 (head)) [% Control]	% control of RLU value (ATP measurement, luminescence intensity) [1] [% Control]	% control of RLU value (ATP measurement, luminescence intensity) [2] [% Control]	% control of RLU value (ATP measurement, luminescence intensity) [3] [% Control]	efficacy in Panc02,03 cell proliferation test using the medium composition by the production method of the present invention (in words)	% control of RLU value (ATP measurement, luminescence intensity) [4] [% Control]	% control of RLU value (ATP measurement, luminescence intensity) [5] [% Control]	% control of RLU value (ATP measurement, luminescence intensity) [6] [% Control]	% control of RLU value (ATP measurement, luminescence intensity) [7] [% Control]	% control of RLU value (ATP measurement, luminescence intensity) [8] [% Control]	% control of RLU value (ATP measurement, luminescence intensity) [9] [% Control]
human EGF: growth factor, manufactured by PEPROTECH	108	105	117	187	97	136	strongly shown	–	–	–	–	–	–
human FGF-2: growth factor, manufactured by PEPROTECH	–	–	–	–	–	–	–	107	108	118	100	102	99
B1	–	–	–	118	99	132	strongly shown	–	–	–	202	98	134
B2	–	–	–	–	–	–	–	101	98	128	–	–	–
